Assay results as given in patent US4966893A, “Method for treatment of senile dementia” (priority 1989, dated 1990).

Legend:
synaptosomes = test: electrically stimulated 3H-acetylcholine release from perfused synaptosomes; type: cell-based, rat; conditions: for electrically stimulated release of ACh (S2/S1 ratio): 10^-6 M drug during the last 25 minutes of perfusion, electrical field stimulation, FIGS. 2 and 3
Method: Using a different protocol, synaptosomes, which had been previously incubated with ^3 H-choline, as in the first series of experiments, were continually perfused with HEPES-buffered Krebs solution. The release of ACh was effected by subjecting the synaptosomes to electrical field stimulation, which more closely mimics physiological stimulation. […] The results obtained by calculating the ratio of the amounts of ACh released during the two periods of electrical stimulation (the areas under the curves, S2/S1) indicate that both Rb1 and Rg1 increase the electrically stimulated release. In addition, Rg1 stimulates the resting release of ^3 H-ACh, as indicated, by the increase in the resting efflux of ^3 H-ACh when the drug was first added. While the net amount of ^3 H-ACh released in each run can vary, depending on the amount of protein on the filter and aging of the synaptosomes, the S2/S1 ratio remains quite constant from run to run using a given chamber. Therefore, in each experiment the same chamber was used for both control and test-drug runs.

[1] = test system: synaptosomes from whole rat brain; test: release of 3H-ACh from synaptosomes under low [K] and high [K] conditions; type: cell-based; conditions: FIG. 1
Method: Pinched off nerve endings (synaptosomes) from whole rat brain were first incubated in the presence of the precursor ^3 H-choline, which is converted intracellularly to ^3 H-ACh. The release of ACh from synaptosomes was quantitated under low [K] and high [K] conditions intended to simulate physiological stimulation.

rat brain synaptosomes = test: resting and voltage dependent uptake of 45Ca into synaptosomes; type: cell-based; conditions: compared with depolarized (52.5 K) uptake, FIG. 6
From the text: If this compound were acting as a non-specific depolarizing agent, one would predict the resting uptake of ^45 Ca would be stimulated several fold, to the same level as the depolarized (52.5 K) uptake.

Row | SMILES | electrically stimulated release of ACh (S2/S1 ratio) (synaptosomes) | resting release (resting efflux) of 3H-ACh (synaptosomes; 10^-6 M drug, when the drug was first added) | release of 3H-ACh [1] | resting uptake of 45Ca (rat brain synaptosomes)
1 | CC(C)=CCC[C@](C)(O[C@@H]1O[C@H](CO)[C@@H](O)[C@H](O)[C@H]1O)[C@H]1CC[C@]2(C)[C@@H]1[C@H](O)C[C@@H]1[C@@]3(C)CC[C@H](O)C(C)(C)[C@@H]3[C@@H](O[C@@H]3O[C@H](CO)[C@@H](O)[C@H](O)[C@H]3O)C[C@]12C [Rg1, ginsenoside Rg1] | increase | stimulates |  | 
2 | CC(C)=CCC[C@](C)(O[C@@H]1O[C@H](CO[C@@H]2O[C@H](CO)[C@@H](O)[C@H](O)[C@H]2O)[C@@H](O)[C@H](O)[C@H]1O)[C@H]1CC[C@]2(C)[C@@H]1[C@H](O)C[C@@H]1[C@@]3(C)CC[C@H](O[C@@H]4O[C@H](CO)[C@@H](O)[C@H](O)[C@H]4O[C@@H]4O[C@H](CO)[C@@H](O)[C@H](O)[C@H]4O)C(C)(C)[C@@H]3CC[C@]12C [Rb1, ginsenoside Rb1] | increase |  | increased | only a minimal increase
